Source: PubChem BioAssay AID1919015 (Molecular Pharmacology Branch, DTP, NCI, 2023)

System: OVCAR-5 complex spheroids with HUVEC/MSC, viability, % test/control
Test: Anticancer human tumor OVCAR-5 cell line growth inhibition [AhR];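 further: spheroids exposed to compounds for 7 days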;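 on viability, T/C: 100% = DMSO vehicle control wells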
Details: for IC50: curve of first compound; for viability, T/C: stronger effect = lower value
Outline: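 Agents were dosed in half-log steps down from roughly clinical Cmax, or from 10 microM where Cmax was unknown, alone and with AhR antagonists. Read-out: percent test/control growth of tumor spheroids containing HUVEC and MSC stromal cells.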

[1] = second compound 0.1 µM, first compound 0.0316 µM
[2] = second compound 0.1 µM, first compound 0.1 µM
[3] = second compound 0.1 µM, first compound 0.316 µM
[4] = second compound 0.1 µM, first compound 1 µM
[5] = second compound 0.1 µM, first compound 3.16 µM
[6] = second compound 0.1 µM, first compound 10 µM
[7] = second compound 0.316 µM, first compound 0.0316 µM
[8] = second compound 0.316 µM, first compound 0.1 µM
[9] = second compound 0.316 µM, first compound 0.316 µM
[10] = second compound 0.316 µM, first compound 1 µM
[11] = second compound 0.316 µM, first compound 3.16 µM
[12] = second compound 0.316 µM, first compound 10 µM
[13] = second compound 1 µM, first compound 0.0316 µM
[14] = second compound 1 µM, first compound 0.1 µM
[15] = second compound 1 µM, first compound 0.316 µM
[16] = second compound 1 µM, first compound 1 µM
[17] = second compound 1 µM, first compound 3.16 µM
[18] = second compound 1 µM, first compound 10 µM
[19] = second compound 3.16 µM, first compound 0.0316 µM
[20] = second compound 3.16 µM, first compound 0.1 µM
[21] = second compound 3.16 µM, first compound 0.316 µM
[22] = second compound 3.16 µM, first compound 1 µM
[23] = second compound 3.16 µM, first compound 3.16 µM
[24] = second compound 3.16 µM, first compound 10 µM
[25] = second compound 10 µM, first compound 0.0316 µM
[26] = second compound 10 µM, first compound 0.1 µM
[27] = second compound 10 µM, first compound 0.316 µM
[28] = second compound 10 µM, first compound 1 µM
[29] = second compound 10 µM, first compound 3.16 µM
[30] = second compound 10 µM, first compound 10 µM
[31] = second compound 0.1 µM, first compound 0.00316 µM
[32] = second compound 0.1 µM, first compound 0.01 µM
[33] = second compound 0.316 µM, first compound 0.00316 µM
[34] = second compound 0.316 µM, first compound 0.01 µM
[35] = second compound 1 µM, first compound 0.00316 µM
[36] = second compound 1 µM, first compound 0.01 µM
[37] = second compound 3.16 µM, first compound 0.00316 µM
[38] = second compound 3.16 µM, first compound 0.01 µM
[39] = second compound 10 µM, first compound 0.00316 µM
[40] = second compound 10 µM, first compound 0.01 µM

| SMILES | IC50 (second compound 0.1 µM) [nM] | IC50 (second compound 0.316 µM) [nM] | IC50 (second compound 1 µM) [nM] | IC50 (second compound 3.16 µM) [nM] | IC50 (second compound 10 µM) [nM] | viability, T/C [1] [%] | viability, T/C [2] [%] | viability, T/C [3] [%] | viability, T/C [4] [%] | viability, T/C [7] [%] | viability, T/C [8] [%] | viability, T/C [9] [%] | viability, T/C [10] [%] | viability, T/C [13] [%] | viability, T/C [14] [%] | viability, T/C [15] [%] | viability, T/C [19] [%] | viability, T/C [20] [%] | viability, T/C [25] [%] | viability, T/C [26] [%] | also measured |
| --- | --- | --- | --- | --- | --- | --- | --- | --- | --- | --- | --- | --- | --- | --- | --- | --- | --- | --- | --- | --- | --- |
| Nc1ccn(C2OC(CO)C(O)C2(F)F)c(=O)n1 (stereo not given) + Cc1ccccc1N=Nc1ccc(NC(=O)c2ccnn2C)c(C)c1 | < 31.6 | < 31.6 | < 31.6 | < 31.6 | < 31.6 | 27.7 | 25.4 | 26.3 | 27.4 | 27.5 | 25.3 | 26.4 | 26.9 | 29.7 | 27.1 | 26.7 | 28.9 | 27.2 | 31.6 | 29.2 | viability, T/C [5]: 28.5%; viability, T/C [6]: 28.1%; viability, T/C [11]: 29%; viability, T/C [12]: 29.1%; viability, T/C [16]: 27.1%; viability, T/C [17]: 28%; viability, T/C [18]: 27.9%; viability, T/C [21]: 27.1%; viability, T/C [22]: 28.2%; viability, T/C [23]: 29.3%; viability, T/C [24]: 29.2%; viability, T/C [27]: 31.9%; viability, T/C [28]: 31.1%; viability, T/C [29]: 32.2%; viability, T/C [30]: 31% |
| Cn1ncnc1C1c2n[nH]c(=O)c3cc(F)cc(c23)NC1c1ccc(F)cc1 (stereo not given) + Cc1cncc(-c2nc(NCCc3c[nH]c4ccccc34)c3ncn(C(C)C)c3n2)c1 | > 100 | > 100 | > 100 | > 100 | < 0.316 | 101 | 99.2 | – | – | 99.4 | 95.2 | – | – | 94.6 | 93.6 | – | 83.4 | 89.5 | 23 | 30.7 | viability, T/C (second compound 0.1 µM, first compound 0.000316 µM): 99.4%; viability, T/C (second compound 0.1 µM, first compound 0.001 µM): 102%; viability, T/C [31]: 103%; viability, T/C [32]: 104%; viability, T/C (second compound 0.316 µM, first compound 0.000316 µM): 101%; viability, T/C (second compound 0.316 µM, first compound 0.001 µM): 104%; viability, T/C [33]: 100%; viability, T/C [34]: 99.2%; viability, T/C (second compound 1 µM, first compound 0.000316 µM): 98.1%; viability, T/C (second compound 1 µM, first compound 0.001 µM): 97.9%; viability, T/C [35]: 95.8%; viability, T/C [36]: 96.4%; viability, T/C (second compound 3.16 µM, first compound 0.000316 µM): 85%; viability, T/C (second compound 3.16 µM, first compound 0.001 µM): 87.3%; viability, T/C [37]: 86.3%; viability, T/C [38]: 87.7%; viability, T/C (second compound 10 µM, first compound 0.000316 µM): 26.6%; viability, T/C (second compound 10 µM, first compound 0.001 µM): 28.5%; viability, T/C [39]: 30.9%; viability, T/C [40]: 27.2% |
| COc1cccc2c1C(=O)c1c(O)c3c(c(O)c1C2=O)CC(O)(C(=O)CO)CC3OC1CC(N)C(O)C(C)O1 (stereo not given) + Cc1ccccc1N=Nc1ccc(NC(=O)c2ccnn2C)c(C)c1 | 139 | 164 | 231 | 269 | 391 | 60.9 | 48.8 | 42.5 | 23.8 | 61.6 | 51.7 | 43.6 | 23.7 | 63.4 | 53.2 | 48 | 65.3 | 59.4 | 63.4 | 62.2 | viability, T/C [5]: 1.63%; viability, T/C [6]: 0.98%; viability, T/C [11]: 1.72%; viability, T/C [12]: 1.7%; viability, T/C [16]: 22.3%; viability, T/C [17]: 1.44%; viability, T/C [18]: 1%; viability, T/C [21]: 48%; viability, T/C [22]: 23%; viability, T/C [23]: 1.21%; viability, T/C [24]: 1.15%; viability, T/C [27]: 55%; viability, T/C [28]: 25.1%; viability, T/C [29]: 1.08%; viability, T/C [30]: 1.24% |
| Nc1ncn(C2CC(O)C(CO)O2)c(=O)n1 (stereo not given) + Cc1ccccc1N=Nc1ccc(NC(=O)c2ccnn2C)c(C)c1 | > 1000 | > 1000 | > 1000 | > 1000 | > 1000 | 88.3 | 76.4 | 65 | 64.5 | 94.3 | 79.6 | 69.3 | 59.2 | 98.2 | 81.4 | 68.9 | 100 | 85.9 | 100 | 82.5 | viability, T/C [31]: 99%; viability, T/C [32]: 98.3%; viability, T/C [33]: 104%; viability, T/C [34]: 104%; viability, T/C [35]: 108%; viability, T/C [36]: 105%; viability, T/C [16]: 62%; viability, T/C [37]: 105%; viability, T/C [38]: 109%; viability, T/C [21]: 72%; viability, T/C [22]: 62.2%; viability, T/C [39]: 104%; viability, T/C [40]: 109%; viability, T/C [27]: 68.1%; viability, T/C [28]: 61.4% |
